According to patent EP2149552A1, “5,6 substituted benzamide derivatives as modulators of EP2 receptors” (Bayer Schering Pharma Aktiengesellschaft, priority 2008, dated 2010):

Columns and labels:
Kumulus-Eizell Komplexe = experiment: cumulus expansion test in vitro; type: cell-based, Mäusen; details: competing with the natural agonist PGE2
Text: In immaturen weiblichen Mäusen (Stamm : CD1 (ICR) von Charles River) wurde in einem Alter von 14 - 18 Tagen die Follikulogenese durch eine einmalige Gabe (intraperitoneal) von 10 I.E. PMSG (Pregnant Mare Serum Gonadotropine; Sigma G-4877, Lot 68H0909) induziert. 47 - 50 Stunden nach der Injektion wurden die Ovarien entnommen und die Kumulus-Eizell Komplexe entnommen. Der Kumulus Komplex ist in diesem Stadium noch nicht expandiert.
Die Kumulus-Eizell Komplexe wurden nun für 20-24 Stunden mit Prostaglandin E2 (PGE2) (0,3 µM), Vehikel Kontrolle (Ethanol) oder Testsubstanzen inkubiert. Medium: alpha- MEM Medium mit 0,1 mM IBMX, Pyruvate (0,23 mM) Glutamine (2 mM), Pen/Strep 100 IU/ml Pen. und 100 µg/ml Strep.) und HSA (8 mg/ml). Danach wurde die Kumulus Expansion durch die Einteilung in vier Stadien (nach Vanderhyden et al. Dev Biol. 1990 Aug;140(2):307-317) festgestellt. Tabelle 1: Beispiel für die biologische Wirksamkeit der erfindungsgemäßen Verbindungen (gemessen mittels cAMP Antagonismustest): […]

[1] = biological target: T1, EP2-Subtyp des humanen PGE2-Rezeptors (Homo sapiens, UniProt P43116); experiment: cAMP antagonism test (HTRF cAMP detection, PGE2-stimulated cells); type: cell-based; details: cAMP Antagonismustest, in presence of agonist PGE2; read-out: Antagonismus [IC50
T1 construct: host or cells: cells in a culture plate
T1 sequence (P43116 whole entry): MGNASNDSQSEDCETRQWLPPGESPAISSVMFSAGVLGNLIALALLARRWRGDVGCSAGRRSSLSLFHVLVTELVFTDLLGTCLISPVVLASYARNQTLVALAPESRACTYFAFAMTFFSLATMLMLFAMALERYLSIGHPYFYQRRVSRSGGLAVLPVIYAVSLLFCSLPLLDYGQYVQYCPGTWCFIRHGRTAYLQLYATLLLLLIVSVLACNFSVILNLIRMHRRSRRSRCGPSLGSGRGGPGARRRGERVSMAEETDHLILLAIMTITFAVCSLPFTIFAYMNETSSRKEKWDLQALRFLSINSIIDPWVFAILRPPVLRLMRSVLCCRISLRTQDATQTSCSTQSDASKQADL
Text: Die Bindung von PGE2 an den EP2-Subtyp des humanen PGE2-Rezeptors induziert die Aktivierung membranständiger Adenylatzyklasen und führt zur Bildung von cAMP. In Gegenwart des Phosphodiesteraseinhibitors IBMX wird das durch diese Stimulation akkumulierte und mittels Zell-Lyse freigesetzte cAMP in einem kompetitiven Nachweisverfahren eingesetzt. In diesem Test konkurriert das cAMP im Lysat mit cAMP-XL665 um die Bindung eines Eu-Kryptat markierten Anti-cAMP Antikörpers.
Dabei entsteht in Abwesenheit von zellulärem cAMP ein maximales Signal, welches auf der Kopplung dieses Antikörpers an das cAMP-XL665 Molekül beruht. Dadurch entsteht nach Anregung bei 337 nm ein auf FRET (fluorescence resonance energy transfer) basierendes, langanhaltendes Emissionssignal bei 665 nm (und bei […]). Beide Signale werden in einem geeigneten Messgerät zeitlich versetzt, d.h. nach Abklingen der Hintergrundsfluoreszenz gemessen. Jegliche Erhöhung des durch Prostglandin-E2-Gabe bedingten niedrigen FRET-Signals (gemessen als Well-Ratio-Veränderung = Emission665nm/Emission620nm * 10000) zeigt die Wirkung von Antagonisten.
Die in einer Testplatte und 30 % DMSO vorgelegten Substanzlösungen (0.75 µl) wurden in 16 µl einer KRSB+IBMX-Stimulationslösung gelöst (1 X Krebs-Ringer Bicarbonate Buffer; Sigma-Aldrich # K-4002; inklusive 750 µM 3-Isobutyl-1-methylxanthine Sigma-Aldrich # I-7018), anschließend wurden 15 µl davon in eine medienfreie Zellkulturplatte überführt, die kurz zuvor mit KRSB gewaschen worden war.
Nach einer 30-minütigen Vorinkubation bei Raumtemperatur (RT) wurden 5 µl einer 4xPGE2 Lösung (11 nM) zugegeben und in Gegenwart des Agonisten für weitere 60 min bei RT inkubiert (Volumen: ∼ 20 µl), bevor die Reaktion anschließend durch Zugabe von 5 µl Lysispuffer gestoppt und für weitere 20 min bei RT inkubiert wurde (Volumen: ∼ 25 µl). Das Zell-Lysat wurde anschließend in eine Messplatte überführt und entsprechend den Herstellerangaben (cyclic AMP kit Cisbio International # 62AMPPEC) gemessen.

[2] = biological target: T1, EP2-Subtyp des humanen PGE2-Rezeptors; experiment: cellular cAMP agonism test (without PGE2); type: cell-based

Compound: CC(C)Oc1ccc2c(=O)c3cc(C(=O)O)ccc3oc2c1 [AH 6809, reference compound]
- Unterdrückung der Kumulus Expansion (Kumulus-Eizell Komplexe; 100 - 200 µM): ca. 30%

Compound: COc1ccc(C(=O)NCCc2c(C)[nH]c3c(F)cc(F)cc23)cc1OC [Beispiel 3, N-[2-(5,7-Difluor-2-methyl-1H-indol-3-yl)-ethyl]-3,4-dimethoxy-benzamid]
- IC50 [1]: 700 nM

Compound: Cc1[nH]c2c(F)c(F)ccc2c1CCNC(=O)c1cc2cc(Cl)ccc2[nH]1 [Beispiel 5, 5-Chlor-1H-indol-2-carbonsäure [2-(6,7-difluor-2-methyl-1H-indol-3-yl)-ethyl]-amid]
- IC50 [1]: 71 nM

Compound: Cc1[nH]c2c(F)c(Cl)ccc2c1CCNC(=O)c1cc2cc(F)ccc2[nH]1 [Beispiel 6, 5-Fluor-1H-indol-2-carbonsäure [2-(6-chlor-7-fluor-2-methyl-1H-indol-3-yl)-ethyl]-amid]
- IC50 [1]: 200 nM

Compound: COc1ccc(C(=O)NCCc2c(C)[nH]c3c(F)cc(Br)c(C)c23)cc1OC [Beispiel 8, N-[2-(5-Brom-7-fluor-2,4-dimethyl-1H-indol-3-yl)-ethyl]-3,4-dimethoxy-benzamid]
- IC50 [1]: 1800 nM

Compound: Cc1[nH]c2c(F)cc(Br)cc2c1CCNC(=O)c1cc2cc(F)ccc2[nH]1 [Beispiel 10, 5-Fluor-1H-indol-2-carbonsäure [2-(5-brom-7-fluor-2-methyl-1H-indol-3-yl)-ethyl]-amid]
- IC50 [1]: 82 nM
- Unterdrückung der Kumulus Expansion (Kumulus-Eizell Komplexe; 5 µM): ca. 75%
- Wirkung im zellulären Agonismustest [2]: keine Inhibition
